The target of one test is T1, androgen receptor (AR) (Mus musculus, UniProt P19091).
T1 construct: in the L929 cells which express the AR but not the PR; endogenous in cells; host or cells: L929 cells
T1 sequence (P19091 1-899): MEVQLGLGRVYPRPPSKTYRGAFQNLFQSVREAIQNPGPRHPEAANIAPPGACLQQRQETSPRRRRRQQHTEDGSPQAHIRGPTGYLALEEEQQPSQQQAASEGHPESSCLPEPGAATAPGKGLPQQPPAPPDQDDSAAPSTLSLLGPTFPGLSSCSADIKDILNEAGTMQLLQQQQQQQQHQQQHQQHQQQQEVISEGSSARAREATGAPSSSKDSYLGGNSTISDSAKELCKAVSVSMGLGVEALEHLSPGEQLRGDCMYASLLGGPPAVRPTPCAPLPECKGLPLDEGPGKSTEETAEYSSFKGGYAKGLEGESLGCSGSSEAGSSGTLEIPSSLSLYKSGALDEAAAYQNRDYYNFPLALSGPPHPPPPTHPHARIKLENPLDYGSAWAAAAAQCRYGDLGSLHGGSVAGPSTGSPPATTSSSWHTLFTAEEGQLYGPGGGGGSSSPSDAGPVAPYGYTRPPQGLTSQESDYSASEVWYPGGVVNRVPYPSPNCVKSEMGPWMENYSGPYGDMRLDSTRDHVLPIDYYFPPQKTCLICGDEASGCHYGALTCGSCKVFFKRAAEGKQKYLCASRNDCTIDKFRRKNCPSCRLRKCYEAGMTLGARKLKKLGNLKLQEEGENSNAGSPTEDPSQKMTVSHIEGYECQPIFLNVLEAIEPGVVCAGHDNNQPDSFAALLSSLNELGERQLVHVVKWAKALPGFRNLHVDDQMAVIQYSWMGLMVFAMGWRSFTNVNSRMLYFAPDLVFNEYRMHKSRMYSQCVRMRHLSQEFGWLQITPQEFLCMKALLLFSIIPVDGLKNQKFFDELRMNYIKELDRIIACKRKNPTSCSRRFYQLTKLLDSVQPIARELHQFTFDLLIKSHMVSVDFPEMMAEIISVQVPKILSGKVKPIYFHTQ
The test can be described thus: Androgen receptor agonistic and antagonistic activity, PRE-tk-luciferase reporter in L929 cells. In kind it is cell-based. On the procedure:
The androgen receptor (AR) agonistic and antagonistic activity of the compositions of the invention in the L929 cells which express the AR but not the PR was evaluated as described in Zhang et al., Steroids, 65(10–11): 637–643 (October–November 2000).
Cells were plated in 96-well plates at 25,000 cells/well in DMEM (BioWhittaker) with 10% (v/v) fetal bovine serum (FBS). The next day, cells were infected with the adenovirus PRE-tk-luciferase reporter construct (2×10^9 pfu/ml particles) and kept in DMEM containing 10% charcoal stripped FBS for an additional 24 hours. […] To test the anti-androgenic activity, cells were co-treated with 3 nM DHT. Luciferase activity was measured 24 hours following the treatment.
A general note: A reporter such as luciferase makes a cellular process visible.

A further test has as its system eczema. The test can be described thus: Conditioning the skin of a human patient with severe eczema. In kind it is in vivo. The conditions noted are these: about 50 mg daily. The method, then: A human patient having a severe form of eczema is treated according to the present invention. Specifically, about 50 mg of 5′-(5-Cyano-1-methyl-1H-pyrrol-2-yl)spiro[cyclohexane-1,3′-[3H]indol]-2′-ylidenecyanamide is delivered to the patient daily.

The subject of the next test is acne vulgaris. Description: Treatment of acne in a human patient, oral tablet daily. Type of test: in vivo. The conditions noted are these: about 20 mg tablet orally daily. The method, then: A human patient having acne vulgaris is treated according to the present invention. Specifically, 5-(5-Cyano-1-methyl-1H-pyrrol-2-yl)spiro[cyclohexane-1,3′-[3H]indol]-2′-ylidenecyanamide is orally delivered to the patient daily. Delivery is in the form of a tablet formulated to contain about 20 mg of 5′-(5-Cyano-1-methyl-1H-pyrrol-2-yl)spiro[cyclohexane-1,3′-[3H]indol]-2′-ylidenecyanamide.

pIC50: −log10 of the molar value.

As a reminder, the pIC50 is −log10 of the IC50, conventionally taken in molar units. Regarding `Cn1c(C#N)ccc1-c1ccc2c(c1)C1(CCCCC1)C(=NC#N)N2` [5′-(5-Cyano-1-methyl-1H-pyrrol-2-yl)spiro[cyclohexane-1,3′-[3H]indol]-2′-ylidenecyanamide], the agonistic activity result at androgen receptor (AR) (at the maximum concentration tested (10 nM)) is “only marginal agonistic activity”. In addition, the pIC50 on androgen receptor (AR) (co-treated with 3 nM DHT, luciferase activity 24 hours after treatment, read-out: IC50 (anti-androgenic activity)) is 6.50. For the same molecule, the antagonistic activity result on androgen receptor (AR) (nine point dose response, co-treated with 3 nM DHT) was “significant antagonistic activity”. For the same molecule, in the test on eczema (after about 12 weeks), the eczema result is “improvement in the eczema is observed”. Besides, the “dryness of the skin” value in the test on eczema (thirty days after the treatment) is reported as “a decrease in the dryness affected to the skin is noticed”. Moreover, the acne vulgaris result with acne vulgaris (after about 24 weeks) was “improvement in the acne vulgaris is observed”. Besides, the “presence of lesions caused by acne vulgaris” value in the test with acne vulgaris (forty-five to sixty days after the treatment) is given as “a decrease in the presence of lesions caused by acne vulgaris is noticed”.

(Values after US7115649B2, “Methods of treating skin disorders using thio-oxindole derivatives” (Wyeth, priority 2002, dated 2006).)
